The text below walks through data of patent publication US20260364101A1, “OLEUROPEIN IN THE MANAGEMENT OF CANCER” (FUNDACIÓN MIGUEL SERVET, priority 2023, published 2026).

“Also recorded” adds a separate entry of the source.

Assay [1] relates to TAMs. As to the kind of experiment: ex vivo differentiated TAMs treated with compound, marker expression by flow cytometry (FIG. 1b). In kind it is cell-based, mouse. To be noted: oleuropein 50 μM. On the procedure: (§1) Immunosuppressive myeloid cell subsets resembling tumor-infiltrating subsets (g-MDSCs, m-MDSCs and TAMs) were differentiated from mouse bone marrow following published procedures using conditioning medium produced by LLC tumor cells stably expressing GMCSF and MCSF cells. g- and m-MDSCs were purified using the myeloid-derived suppressor cell isolation kit (Miltenyi Biotec, Bergisch, Germany) according to manufacturer's recommendations. MDSCs and TAMs were seeded with 500 nM BML-275 or 50 μM oleuropein and incubated for seven days.
(§2) Surface and intracellular staining were carried out as described before with the following fluorochrome-conjugated antibody clones: AF488 anti-CD49d (R1-2), PE anti-CD4 (GK1.5), APCanti-CD8(53-6.7), brilliant Violet 510™ anti-I-A/I-E (M5/114.15.2,PE/Cyanine7anti-Ly-6G (1A8), and APC anti-CD80 (16-10A1) (Biolegend), FITC anti-IL-12 (C15.6) and BV421 anti-IL-2 (JES6-5H4) (BD Bioscience), APC-Vio® 770 anti-Ly-6C (REA796), PE REAfinity™ anti-F4/80 (REA126), and APC anti-CD68 (REA886) (Miltenyi), PerCP-Cyanine5.5 Anti-Human/Mouse CD11b (M1/70) (Tonbo), and AF488 anti-IFNγ (Clone XMG1.2) (BD Pharmigen). For human cells, it was used the following fluorochrome-conjugated antibodies: PerCP-Cy5.5-anti-CD11b (integrina alfa M) (M1/70), Violet Fluor 450 anti-CD14 antibody (61D3) (Tonbo), PE anti-CD115 (CSF-1R) (9-4D2-1E4) (Biolegend), PE-Cy™7 anti-CD11c (Clone B-ly6) (BD Bioscience), and APC anti-HLA-DR (REA517) (Miltenyi).
(§3) Data were collected using the FACSCanto Flow Cytometer (BD Biosciences) for ex vivo and in vitro experiments at Navarrabiomed Biomedical Research Center and Cyroflex LX flow cytometer (Beckman Counter). Data were analyzed with Flowjo.
(In flow cytometry, cells or beads pass a laser one at a time.)

Assay [2] has as its system myeloid cells from NSCLC patients. Put plainly: myeloid cells from NSCLC patients treated ex vivo, flow cytometry (FIG. 6a). In kind it is cell-based, human. On the procedure:
as §2, §3
Twenty-one patients diagnosed with locally advanced or metastatic NSCLC treated with the immune checkpoint inhibitors (ICI) pembrolizumab (anti-PD-1) were recruited for the study. The characteristics of the cohort under study have been described before, and this observational study was approved by the Ethics Committee of Clinical Investigations at the University Hospital of Navarre (reference number: PI_2020/115). 11 of the patients were chemoresistant. Blood samples from non-small cell lung cancer (NSCLC) patients were collected prior to treatment and before administration of each immunotherapy cycle.
PBMCs were isolated as described and grown in vitro for 24 h in TEXCMACs medium (Miltenyi Biotec). Myeloid cells were obtained by adherence to plastic for 24 h. Then, 50,000 myeloid cells were seeded per well with 50 µM oleuropein in 96-well plates and incubated for seven days.

The subject of assay [3] is MDSCs. Put plainly: ex vivo differentiated MDSCs treated with compound, marker expression by flow cytometry (FIG. 1a). In kind it is cell-based, mouse. To be noted: oleuropein 50 μM. On the procedure: as §1, §2, §3
In assay [4] the test system is CD4 T cells. Put plainly: mixed lymphocyte reaction (MLR) with TAMs as stimulator cells (FIG. 1c,d). It counts as cell-based, mouse. To be noted: treated TAMs as stimulators; 5 days. How it is done:
MLR were carried out following standard procedures. Briefly, 100,000 MDSCs or TAMs from C57BL/6 mice were co-cultured in 96-well plates with 100,000 lymphocytes from BALB/c mice. Co-cultured cells were treated with 50 µM oleuropein and compared with control vehicle. After 5 days, T-lymphocyte activation, differentiation and proliferation were assessed by flow cytometry. T-cell activation and proliferation markers (Ki-67) and pro-inflammatory cytokine production (IL-2 and IFNγ) were evaluated by flow cytometry in CD4 and CD8 T cells as described before.
as §2, with “For human cells, it was used the following fluorochrome-conjugated antibodies: PerCP-Cy5.5-anti-CD11b (integrina alfa M) (M1/70), Violet Fluor 450 anti-CD14 antibody (61D3) (Tonbo), PE anti-CD115 (CSF-1R) (9-4D2-1E4) (Biolegend), PE-Cy™7 anti-CD11c (Clone B-ly6) (BD Bioscience), and APC anti-HLA-DR (REA517) (Miltenyi).” left out

Where [5] appears, read: oleuropein 50 μM, seven days, N=21 patients.

Regarding `C/C=C1/[C@H](O[C@@H]2O[C@H](CO)[C@@H](O)[C@H](O)[C@H]2O)OC=C(C(=O)OC)[C@H]1CC(=O)OCCc1ccc(O)c(O)c1` [oleuropein], in assay [1] (BML-275 500 nM, TAMs), the “cells co-expressing MHC-II and CD80” value was “significant elevation”. In assay [1], the “polarization of TAMs” value is “polarized MDSCs and TAMs into activated myeloid cells; also recorded: polarized TAMs to activated macrophages”. Also, the IL-12 production result in assay [1] (TAMs) was “upregulated IL-12 production only in the presence of oleuropein”. Moreover, the “activation of myeloid cells of subjects suffering lung cancer” value in assay [2] (including anti-PD-1-based therapy resistance) is reported as “induced the activation of myeloid cells”. For the same compound, in assay [2] (setting [5]), the “CD11b+ cells” value is “increase”, the “expression of CD11c+HLA-DR” value is reported as “elevation”, the “expression of CD14+HLA-DR” value was “elevation” and the “expression of CD115+HLA-DR” value is listed as “elevation”. Besides, the “polarization of MDSCs” value in assay [3] is “polarized MDSCs and TAMs into activated myeloid cells”. In addition, the IL-12 entry in assay [3] (MDSCs) is listed as “significant increase”. For the same compound, the “CD4 T cell stimulation assessed by IFNγ and IL-2 production” value in assay [4] is “potently stimulated”.
